We go through one molecule from patent US11622951B2, “Alpha-aminoadipate for treatment of vision loss and restoring sight” (The Schepens Eye Research Institute, Inc., priority 2013, dated 2023).

Common to all, as to assay type: in vivo, mouse
Test [1] concerns grafted retinal progenitor cells. The test is described as follows: Integration of grafted EGFP+ retinal progenitor cells into pretreated wild-type host retina. The method, then:
(§1) Mice were anesthetized by intraperitoneal injection of ketamine (62.5 mg/kg) and xylazine (12.5 mg/kg) and transcardially perfused with phosphate buffered saline (PBS) followed by 4% paraformaldehyde in PBS. Retinal flat-mounts or transverse retinal sections (14 μm) were preblocked with PBS containing 3% bovine serum albumin (Sigma-Aldrich, St. Louis, Mo.) and 0.3% Triton X (Sigma-Aldrich) and incubated, first, with primary antibody overnight, and then with secondary antibody for 1 hour at room temperature. The following antibodies were used: Cy3-conjugated monoclonal antibody against GFAP (1:1000; Sigma), Brn-3b (1:200; Santa Cruz Biotechnology; Santa Cruz, Calif.), mouse anti-rhodopsin (1:4000; Rho1D4), chick anti-cone-opsin (1:300), and Cy-2, Cy-3 or Cy-5-conjugated secondary antibody (Jackson ImmunoResearch; West Grove, Pa.). Assessment of morphological integration were quantified by counting EGFP+ cells located outside of transplanted cell clusters in retinal whole-mounts. Statistical significance was determined by either the two tailed student t test or ANOVA.
At 2 days before transplantation, 2 μl of a solution containing either α-AA (1 μg/μl) or saline (control) was injected unilaterally into the subretinal space of recipient wild-type or Gnat1^−/− mice (>2 months old). The procedure for donor cell preparation was essentially as described by Kinouchi et al, 2003, Nat Neurosci, 6:863-868. Briefly, retinal progenitor cells were isolated from postnatal day 0 (P0) EGFP transgenic mice. […]
If transient disruption of retinal glia with α-AA promotes morphological integration of grafted retinal progenitors in vivo was next investigated. […] Thus, in the following studies, cell transplantation was performed at day 2 after α-AA pretreatment when temporal disruption of residential glial structure by α-AA was detected that effectively ameliorates the host barrier to cell integration and promotes grafted cell migration into the host retina.

Another test relates to GFAP. Kind of test: Western blot of GFAP expression in injected retinas. The method, then: To determine the effect of α-AA on retinal glial cells, mouse retinas were dissected and homogenized in lysis buffer 3% sodium dodecyl sulfate (Sigma-Aldrich), 0.3 M sucrose (Sigma-Aldrich), 1 mM orthovanadium (Sigma-Aldrich)]. Protein concentrations were determined with a BCA assay (Pierce; Rockford, Ill.). Protein (20 μg) was loaded on a 10% sodium dodecyl sulfate-polyacrylamide gel and transferred to a nitrocellulose membrane. The blot was blocked in 1% bovine serum albumin (Sigma-Aldrich) and 4% dry milk in PBS and probed with primary antibodies against GFAP (1:1000; Chemicon; Temecula, Calif.) and β-actin (Sigma-Aldrich) as loading controls. After incubation with appropriate secondary antibodies conjugated to horseradish peroxidase (Jackson Immunochemicals; West Grove, Pa.), detection was performed with Super Signal West Pico (Pierce). Retinal astrocytes and Müller glia are central to the homeostatic and metabolic support of retinal neurons; whereas, after injury these cells develop glial scar that forms critical barriers to neuron regeneration and integration by retinal progenitor cells. […] Retinal glial morphology was examined by immunolabeling for glial marker GFAP and assessed the level of GFAP expression by Western blot at day 1-7 post injection. Expression of GFAP is widely detected in the normal mouse retinas (FIG. 1a).
On the technique in general: In western blotting, separated proteins are transferred to a membrane and probed.

The subject of test [2] is retinal glial cells (GFAP expression). The test is described as follows: GFAP immunolabeling of retinal glia after subretinal injection. The following applies: adult wild-type mice. The method, then:
as §1, with “The following antibodies were used: Cy3-conjugated monoclonal antibody against GFAP (1:1000; Sigma), Brn-3b (1:200; Santa Cruz Biotechnology; Santa Cruz, Calif.), mouse anti-rhodopsin (1:4000; Rho1D4), chick anti-cone-opsin (1:300), and Cy-2, Cy-3 or Cy-5-conjugated secondary antibody (Jackson ImmunoResearch; West Grove, Pa.).” left out
Retinal astrocytes and Müller glia are central to the homeostatic and metabolic support of retinal neurons; whereas, after injury these cells develop glial scar that forms critical barriers to neuron regeneration and integration by retinal progenitor cells. […] Retinal glial morphology was examined by immunolabeling for glial marker GFAP and assessed the level of GFAP expression by Western blot at day 1-7 post injection. Expression of GFAP is widely detected in the normal mouse retinas (FIG. 1a).

Turning to `NC(CCCC(=O)O)C(=O)O` (stereo not drawn) [α-AA, alpha-aminoadipate], the “number of cells repopulated the host retina” value in test [1] (transplantation performed after day 5 post treatment) was “drastically diminished”. In addition, the “increase in number of engrafted cells bearing long neurites (>3 body length)” value in test [1] (wild-type hosts, three weeks post transplantation, vs saline-treated or untreated retinas) is 7-11 fold. For the same molecule, the “increase in the number of EGFP+ cells repopulated into the host retina” value in test [1] (wild-type hosts, transplantation day 2 after pretreatment, three weeks post transplantation, vs saline-treated or untreated retinas) is given as 3-5 fold. Moreover, the “GFAP expression, Western blot quantification” value in the test with GFAP (by day 7 post injection) is reported as “returned to a control level”; in the test with GFAP (day 3 post injection, vs normal or saline-injected controls) it was “significant downregulation”. Besides, the “GFAP immunostaining at the injection site” value in test [2] (by day 7 post injection) is recorded as “reappeared at the injection site”. Further, the “GFAP expression around the injection site (immunolabeling)” value in test [2] (single subretinal injection 1 μg/μl, 1-3 days post injection) was “effectively eliminated GFAP expression”.
